{"source": "patent US20090124672A1", "about": "(priority 2007, published 2009)", "key": {"[1]": {"system": "Sprague-Dawley rats treated with DMCM", "assay": "Social interaction test, DMCM-induced anxiety", "format": "in vivo, rat", "conditions": "0.5 mg/kg DMCM", "text": "(§1) Experienced observers blinded to the experimental conditions carried out the social interaction test in a square open field (60 cm by 60 cm, with 16 15×15 cm squares marked out on the floor). Pairs of rats receiving the same treatment were placed in the arena and the onset of social interactions recorded. This procedure has been validated by previous studies (Overstreet et al. (2002); Overstreet et al. (2003)). Rats were unfamiliar with the open field and lighting conditions were low in order to generate an intermediate level of anxiety-related behavior. Rat pairs matched according to weight and treatment were placed simultaneously in the open field. During the 5-min session, line crosses (by two forepaws) and time spent in social interaction (grooming, sniffing, following) were scored individually for each rat (Kampov-Polevoy et al., 2000; Overstreet et al., 2002, 2003).\n(§2) Fifteen min later the rats received a second injection of 0.5 mg/kg DMCM (methyl 6,7-demethoxy-4-ethyl-β-carboline-3-carboxylate) or vehicle (acidified saline). The rats were placed in the open field arena 15 min after the second injection for recording social interaction and locomotor activity for 5-min. Approximately one week later the rats were treated with Compound A (3.75, 7.5 or 15 mg/kg). The 5-HT2C agonist mCPP (m-chlorophenylpiperazine; 0.5 mg/kg) or vehicle (saline) was given 15 min later. After another 15 min period, the social interaction and locomotor activity for five min were recorded."}, "[2]": {"target": "T1, hMAO-B (Homo sapiens, UniProt P27338)", "T1 construct": "purchased Sigma M7441", "T1 sequence (P27338 1-520)": "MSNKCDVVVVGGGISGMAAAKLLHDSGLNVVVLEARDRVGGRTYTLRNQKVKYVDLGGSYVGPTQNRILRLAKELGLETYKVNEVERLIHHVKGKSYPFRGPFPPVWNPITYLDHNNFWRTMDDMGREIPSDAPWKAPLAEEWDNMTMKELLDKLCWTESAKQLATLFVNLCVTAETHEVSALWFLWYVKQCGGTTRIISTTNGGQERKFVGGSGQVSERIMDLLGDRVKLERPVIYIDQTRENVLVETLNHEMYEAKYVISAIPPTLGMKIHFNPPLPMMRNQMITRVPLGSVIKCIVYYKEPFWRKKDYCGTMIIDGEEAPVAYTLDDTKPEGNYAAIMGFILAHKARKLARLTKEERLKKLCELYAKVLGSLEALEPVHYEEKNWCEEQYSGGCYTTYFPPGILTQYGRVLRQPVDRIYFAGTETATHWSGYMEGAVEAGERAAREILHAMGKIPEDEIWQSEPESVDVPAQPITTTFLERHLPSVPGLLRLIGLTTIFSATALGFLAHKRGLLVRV", "assay": "MAO-B inhibition assay (Amplex Red, horseradish peroxidase-coupled)", "format": "biochemical", "conditions": "at 10 μM; read-out: hMAO-B inhibition (IC50 hMAO-B)", "experimental": "MAO-A (Sigma M7316) and MAO-B (Sigma M7441) inhibition assays were conducted in 96-well micro-plates according to the method described by Zhou et al. [Analytical Biochemistry 253, 169-174, 1997]. Both assays were performed in potassium phosphate buffer (0.1 M, pH 7.5) containing 0.5 mM tyramine (Sigma T2879), 0.12 mM N-acetyl-3,7-dihydrophenoxazine (Amplex Red, Invitrogen A12222), 1.2 unit/ml horseradish peroxidase (Sigma P2088), 0.6 unit/ml MAO-A or 2.5 unit/ml MAO-B, and various concentrations of test compounds (0.1 nM to 10 uM). Reactions were initiated by the addition of a pre-mixed solution of tyramine, horseradish peroxidase and Amplex Red, and were allowed to proceed at 37° C. for 30 min. Enzyme activities were determined by measuring absorbance at 570 nm (SpectralMax Plate reader), absorbance of oxidized Amplex Red generated by this horseradish peroxidase-coupled reaction. Nonspecifically formed products were determined in the presence of 2 and 10 µM clorgyline and deprenyl for MAO-A and MAO-B, respectively. IC50 values were determined by fitting concentration-inhibition data to sigmoidal dose-response curves with two-floating parameters: IC50 and Hill coefficient."}, "[3]": {"target": "T2, hALDH2 (recombinant human mitochondria ALDH) (Homo sapiens, UniProt P05091)", "T2 sequence (P05091 18-517)": "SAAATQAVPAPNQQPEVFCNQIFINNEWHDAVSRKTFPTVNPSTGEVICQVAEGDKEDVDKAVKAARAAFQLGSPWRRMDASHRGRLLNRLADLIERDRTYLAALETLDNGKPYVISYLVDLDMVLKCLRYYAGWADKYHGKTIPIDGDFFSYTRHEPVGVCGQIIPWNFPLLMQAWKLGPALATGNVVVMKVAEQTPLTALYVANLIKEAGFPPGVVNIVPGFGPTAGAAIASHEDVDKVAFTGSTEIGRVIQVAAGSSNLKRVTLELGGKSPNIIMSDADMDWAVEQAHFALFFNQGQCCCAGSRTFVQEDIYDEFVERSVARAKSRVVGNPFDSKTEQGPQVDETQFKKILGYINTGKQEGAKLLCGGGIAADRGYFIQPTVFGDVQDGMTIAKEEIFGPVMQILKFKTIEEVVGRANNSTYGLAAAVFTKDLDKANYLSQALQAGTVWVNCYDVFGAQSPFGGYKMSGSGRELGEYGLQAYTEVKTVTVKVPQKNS", "assay": "ALDH2 inhibition assay (NADH formation, formaldehyde substrate)", "format": "biochemical", "summary_of_the_method": "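1 nM enzyme in 50 mM sodium phosphate pH 7.4 with 1.2 mM NAD+ and compound at 0.03–1000 nM; reaction started with 0.15 mM formaldehyde at 25 °C. NADH formation followed by fluorescence (ex 340/em 460 nm). IC50 from sigmoidal fits with floating Hill slope; apparent Ki from Morrison equation if tight binding.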"}, "[4]": {"system": "Sprague-Dawley rats treated with mCPP", "assay": "Social interaction test, mCPP-induced anxiety", "format": "in vivo, rat", "text": "as §1, §2"}}}
{"compound": "CCc1c(C(=O)OC)ncc2[nH]c3cc(OC)c(OC)cc3c12", "note": "[DMCM, methyl 6,7-demethoxy-4-ethyl-β-carboline-3-carboxylate, reference compound]", "values": [{"measurement": "social interaction (effect of anxiogenic agent)", "setting": "[1]; 15 min before test", "result": "substantially reduced social interaction"}, {"measurement": "locomotor activity (effect of anxiogenic agent)", "setting": "[1]; compared to controls", "result": "reduced locomotor activity"}]}
{"compound": "CS(=O)(=O)Nc1ccc(-c2c(O)oc3cc(OCc4cccc(C(=O)O)c4)ccc3c2=O)cc1", "note": "[PT-111, 3-[(2-hydroxy-3-{4-[(methylsulfonyl)amino]phenyl}-4-oxochromen-7-yloxy)methyl]-benzoic acid]", "values": [{"measurement": "inhibition at 10 µM", "setting": "[2]", "result": 30, "unit": "%"}, {"measurement": "IC50", "setting": "[3]", "result": 3, "unit": "nM"}]}
{"compound": "Clc1cccc(N2CCNCC2)c1", "note": "[mCPP, m-chlorophenylpiperazine]", "values": [{"measurement": "social interaction (effect of anxiogenic agent)", "setting": "[4]; 0.5 mg/kg mCPP, 15 min before test", "result": "low social interaction score"}, {"measurement": "locomotor activity (effect of anxiogenic agent)", "setting": "[4]; 0.5 mg/kg mCPP, compared to controls", "result": "reduced locomotor activity"}, {"measurement": "locomotor activity compared to vehicle-treated rats receiving mCPP", "setting": "[4]; rats receiving mCPP 0.5 mg/kg", "result": "no effect"}]}
